Data set [1] concerns Vaccinia virus (WR strain). Briefly: microbe, parasite or virus in culture. The data set is classed as cell-based. To be noted: Orthopoxvirus vaccinia, BSC-1, read-out: Plaque Reduction EC50.
Data set [2] in a line: Solubility in PBS by chemiluminescence of total nitrogen. The data set is classed as physicochemical.
Data set [3] concerns the target vaccinia E9 DNA polymerase with A20 and D4 (processivity complex) (Vaccinia virus, UniProt P04303). Put plainly: biochemical.
A short description of data set [4]: Cytotoxicity by LDH release. In kind it is cell-based. To be noted: African green monkey, BSC-1 cells. (In general: LDH leaks from cells whose membrane has failed.)
The next data set deals with vaccinia virus D4 (Vaccinia virus, UniProt P04303). In kind it is binding.

Molecules are shown by their SMILES. Converted amounts (≈) assume the structure as drawn. “And” between values parts separate entries of the source, which are not always exact repeats. Equal entries are not always repeated.

In the case of `Cc1ccc2oc(-c3ccc(Cl)cc3)c(O)c(=O)c2c1` [Compound 5], the EC50 (as a rule, the concentration at which the effect is half-maximal) in data set [1] is no less than 200 µM.

As to `O=C1c2ccccc2-c2onc3c(NCCO)cc(NC4CCCCC4)c1c23` [Compound 9, 10-(cyclohexylamino)-12-[(2-hydroxyethyl)amino]-15-oxa-14-azatetracyclohexadeca-1(16),2,4,6,9,11,13-heptaen-8-one], the solubility (usually the concentration that dissolves in the medium under given conditions) in data set [2] is 1.4 µg/mL and 3.6 µM. In addition, the IC50 (commonly the concentration that gives 50% inhibition) in data set [3] was determined as 34.1 µM. Moreover, in data set [4], the CC50 (commonly the concentration that lowers cell viability or growth by half) at 20 h worked out at 127 µM. The EC50 in data set [1] was 8.1 µM. In addition, on vaccinia virus D4, the Tm stood at 51.4 ± 9.1 °C and the ΔTm (in general, the shift of the melting midpoint relative to a reference) was 13.1 °C.

For `Oc1ccc(NCc2ccccc2OCc2ccccc2)cc1` [Compound 10, 4-({[2-(benzyloxy)phenyl]methyl}amino)phenol], the solubility in data set [2] worked out at 3.5 µM (≈ 1.07 µg/mL). Besides, the EC50 in data set [1] was found to be 9.8 µM.

Take `COc1ccc(Nc2nc(Nc3ccc(OC)cc3OC)nc(N3CCOCC3)n2)c(OC)c1` [Compound 12]: in data set [1], the EC50 was no less than 200 µM.

In data set [2], `Cn1c(=O)n(C)c2cc(NS(=O)(=O)c3ccc(C(C)(C)C)cc3)c(NCc3ccccc3)cc21` [Compound 14, N-[6-(benzylamino)-1,3-dimethyl-2-oxo-2,3-dihydro-1H-1,3-benzodiazol-5-yl]-4-tert-butylbenzene-1-sulfonamide] returned a solubility of 1.9 µM (≈ 0.909 µg/mL).

The compound `Cc1cc2n(n1)C(c1cc(C(C)(C)C)c(O)cc1O)Nc1ccccc1-2` (stereo not shown) [Compound 15, 4-tert-butyl-6-{2-methyl-5H,6H-pyrazolo[1,5-c]quinazolin-5-yl}benzene-1,3-diol] yielded a solubility in data set [2] of 54.7 µM (≈ 19.1 µg/mL). Further, the EC50 in data set [1] stood at 23.3 µM.

Turning to `COc1ccc(C)cc1N(CC(=O)N1CCC(C)CC1)S(=O)(=O)c1ccc(C)cc1` [Compound 26], the EC50 in data set [1] is no less than 200 µM.

`COc1cc(-c2nc(-c3ccccc3)c(-c3ccc(Br)cc3)[nH]2)cc(OC)c1O` [Compound 27, 4-[5-(4-bromophenyl)-4-phenyl-1H-imidazol-2-yl]-2,6-dimethoxyphenol]: in data set [2], the concentration in solution (solubility) was 3.2 µM (≈ 1.44 µg/mL). In addition, the EC50 in data set [1] came to 22.4 µM.

(Values after article PMC3155816 (Journal of medicinal chemistry, 2011).)
